Measured values reported in PMC12298827, “Subchronic Toxicities of Four Per- and Polyfluoroalkyl Substances (PFASs) by Oral Exposure in Sprague–Dawley Rats” (Toxics, 2025).

Test system: male and female Sprague–Dawley rats
Test: 90-day subchronic oral gavage toxicity study
Assay type: in vivo, rat
Method: Subchronic (90-day) studies were performed in accordance with current U.S. EPA’s Toxic Substances Control Act Good Laboratory Practice (GLP) Standards, with the following two general exceptions to the GLP guidelines: Analysis of the dose formulations was conducted according to RTI-approved Standard Operating Procedures, and corn oil (the vehicle) was not characterized (certificate of analysis from the vendor is available in the appendices to the final reports). Male and female Sprague–Dawley rats (five dose levels plus a control, n = 10/sex/dose group, corn oil vehicle dose volume of 3 mL/kg; oral gavage) were used in these studies, and the rats were euthanized on SD 91. The dose levels for PFHI were 0, 12.5, 25, 50, 100, and 200 mg/kg-day. The dose levels for MHFPK were 0, 18.8, 37.5, 75, 150, and 300 mg/kg-day. The dose levels for PFNAC were 0, 0.1, 0.3, 1.0, 3.0, and 10 mg/kg-day for male rats and 0, 0.3, 1.0, 3.0, 10, and 30 mg/kg-day for female rats. For CTFPA, the dose levels were 0, 1.9, 3.8. 7.5, 15, and 30 mg/kg-day for male rats and 0, 6.3, 12.5, 25, 50, and 100 mg/kg-day for female rats. For each PFAS, three batches of dosing solution were prepared. The time between the batch preparation of the dosing solutions ranged between 29 and 39 days. Blood samples were collected from all the rats at termination for serum chemistry, hematology, coagulation, and the analysis of the parent PFAS chemical in the plasma. In vivo data collection and further detail on the endpoints examined postmortem are described below.
The rats were observed twice daily for morbidity and mortality throughout the study period. At least once prior to randomization to test groups and weekly thereafter, the rats were physically examined, and bodyweights were obtained. Feed consumption was quantified weekly starting on SD 1.
Neurotoxicity was evaluated using the functional observational battery (FOB) and measuring locomotor activity (LMA) 2–4 h post dosing on SDs 78–80 and 80–84, respectively. For both the 14- and 90-day studies, an ophthalmologic examination was conducted prior to randomization and near the end of the study, using indirect ophthalmoscopy and slit–lamp biomicroscopy (as needed) after the administration of a mydriatic solution.
Hematology, biochemistry, and coagulation endpoints were measured at the termination of the study. A Siemens Advia 2120i hematology analyzer (Siemens Healthineers, Erlangen, Germany) was used to measure (or calculate) the parameters related to the complete blood count, leukocyte differential count, and reticulocyte count. The hematology parameters are listed and described in Table 2. The prothrombin time […] and activated partial thromboplastin time (APTT) were measured using an Instrumentation Laboratory (Bedford, MA, USA) ACL Elite Pro coagulation analyzer (laser–nephelometric centrifugal method).
At necropsy, the rats were visually examined for external abnormalities and organ weights (absolute and relative to the BW and brain weight), which were recorded (paired organs weighed together). The tissues were preserved in 10% neutral buffered formalin (NBF), except for the ocular tissues, testes, and epididymides, which were preserved in modified Davidson’s fixative and later transferred to 10% NBF. Bone marrow smears were prepared from the femurs, and the slides were air-dried, fixed in methanol, stained, and stored at room temperature for possible future evaluation. The preserved tissues were embedded in paraffin, sectioned, stained with hematoxylin and eosin, and examined by a board-certified veterinary pathologist.
Statistical analysis was performed using Provantis™ Version 10 or greater (Instem LSS, Limited; Stone, Staffordshire, UK). Differences among the treatment groups compared to the control were evaluated using one-way analysis of variance (ANOVA) if the underlying assumptions of a normal distribution (Shapiro–Wilk test) and the homogeneity of the variance (Levene’s test) were satisfied. […]

FC(F)(F)C(F)(F)C(F)(F)C(F)(F)CCI [PFHI, 1H,1H,2H,2H-Perfluorohexyl iodide]
Liver/Brain Weight (female, 200 mg/kg-day): 481%
MPV (female, 200 mg/kg-day): 7.68 ± 0.44 fL
PT (female, 200 mg/kg-day): 13.98 s
Total BW change (female, 200 mg/kg-day): 108.57 g
Total Food Consumed (female, 200 mg/kg-day): 1566 g
BMD10, absolute kidney weight increase (male): 122 mg/kg-day
BMD10, relative kidney weight increase (male): 69.7 mg/kg-day
BMDL, absolute kidney weight increase (male): 83.8 mg/kg-day
BMDL, relative kidney weight increase (male): 56.6 mg/kg-day
LOEL, absolute kidney weight increase (male): 200 mg/kg-day
LOEL, absolute liver weight increase (male): 100 mg/kg-day
LOEL, relative kidney weight increase (male): 100 mg/kg-day
LOEL, relative liver weight increase (male): 25 mg/kg-day
NOEL, absolute kidney weight increase (male): 100 mg/kg-day
NOEL, absolute liver weight increase (male): 50 mg/kg-day
NOEL, relative kidney weight increase (male): 50 mg/kg-day
NOEL, relative liver weight increase (male): 12.5 mg/kg-day
% BW Gain (male, 12.5 mg/kg-day): 114.45%
% Diff, % BW Gain (male, 12.5 mg/kg-day): 0.87%
% Diff, Total BW change (male, 12.5 mg/kg-day): -1.78%
% Diff, Total Food Consumed (male, 12.5 mg/kg-day): -6.69%
A/G (male, 12.5 mg/kg-day): 0.91±0.04 ratio
ALB (male, 12.5 mg/kg-day): 3.42 ± 0.25 g/dL
ALPi (male, 12.5 mg/kg-day): 102.9±14.1 U/L
APTT (male, 12.5 mg/kg-day): 23.37 s
BUN (male, 12.5 mg/kg-day): 14.8 ± 2.0 mg/dL
CHOL (male, 12.5 mg/kg-day): 87.5 ± 9.2 mg/dL
GLOB (male, 12.5 mg/kg-day): 3.77 ± 0.18 g/dL
GLUC (male, 12.5 mg/kg-day): 199.1 ± 29.5 mg/dL
HCT (male, 12.5 mg/kg-day): 51.12±1.63%
HGB (male, 12.5 mg/kg-day): 15.92 ± 0.40 g/dL
Kidney Weight (male, 12.5 mg/kg-day): 3.04 g
Kidney/Body Weight (male, 12.5 mg/kg-day): 0.51%
Kidney/Brain Weight (male, 12.5 mg/kg-day): 140%
Liver Weight (male, 12.5 mg/kg-day): 15.35 g
Liver/Body Weight (male, 12.5 mg/kg-day): 2.59%
Liver/Brain Weight (male, 12.5 mg/kg-day): 706%
MPV (male, 12.5 mg/kg-day): 7.20 ± 0.26 fL
PT (male, 12.5 mg/kg-day): 14.91 s
Total BW change (male, 12.5 mg/kg-day): 319.83 g
Total Food Consumed (male, 12.5 mg/kg-day): 2217 g
% BW Gain (male, 25 mg/kg-day): 112.88%
% Diff, % BW Gain (male, 25 mg/kg-day): -0.52%
% Diff, Total BW change (male, 25 mg/kg-day): -1.33%
% Diff, Total Food Consumed (male, 25 mg/kg-day): -4.60%
A/G (male, 25 mg/kg-day): 0.88±0.10 ratio
ALB (male, 25 mg/kg-day): 3.35 ± 0.14 g/dL
ALPi (male, 25 mg/kg-day): 112.3±29.5 U/L
APTT (male, 25 mg/kg-day): 29.06 s
BUN (male, 25 mg/kg-day): 15.3 ± 2.1 mg/dL
CHOL (male, 25 mg/kg-day): 101.5 ± 15.8 mg/dL
GLOB (male, 25 mg/kg-day): 3.84 ± 0.36 g/dL
GLUC (male, 25 mg/kg-day): 204.5 ± 34.6 mg/dL
HCT (male, 25 mg/kg-day): 50.59±1.92%
HGB (male, 25 mg/kg-day): 15.67 ± 0.55 g/dL
Kidney Weight (male, 25 mg/kg-day): 3.20 g
Kidney/Body Weight (male, 25 mg/kg-day): 0.54%
Kidney/Brain Weight (male, 25 mg/kg-day): 147%
Liver Weight (male, 25 mg/kg-day): 16.98 g
Liver/Body Weight (male, 25 mg/kg-day): 2.85%
Liver/Brain Weight (male, 25 mg/kg-day): 780%
MPV (male, 25 mg/kg-day): 7.13 ± 0.21 fL
PT (male, 25 mg/kg-day): 14.69 s
Total BW change (male, 25 mg/kg-day): 321.29 g
Total Food Consumed (male, 25 mg/kg-day): 2266 g
% BW Gain (male, 50 mg/kg-day): 108.23%
% Diff, % BW Gain (male, 50 mg/kg-day): -4.61%
% Diff, Total BW change (male, 50 mg/kg-day): -5.67%
% Diff, Total Food Consumed (male, 50 mg/kg-day): -6.15%
A/G (male, 50 mg/kg-day): 0.91±0.04 ratio
ALB (male, 50 mg/kg-day): 3.41 ± 0.12 g/dL
ALPi (male, 50 mg/kg-day): 103.3±31.6 U/L
APTT (male, 50 mg/kg-day): 20.03 s
BUN (male, 50 mg/kg-day): 15.4 ± 1.8 mg/dL
CHOL (male, 50 mg/kg-day): 100.2 ± 18.8 mg/dL
GLOB (male, 50 mg/kg-day): 3.74 ± 0.13 g/dL
GLUC (male, 50 mg/kg-day): 196.8 ± 40.7 mg/dL
HCT (male, 50 mg/kg-day): 49.78±1.69%
HGB (male, 50 mg/kg-day): 15.53 ± 0.59 g/dL
Kidney Weight (male, 50 mg/kg-day): 3.25 g
Kidney/Body Weight (male, 50 mg/kg-day): 0.56%
Kidney/Brain Weight (male, 50 mg/kg-day): 143.1%
Liver Weight (male, 50 mg/kg-day): 17.05 g
Liver/Body Weight (male, 50 mg/kg-day): 2.92%
Liver/Brain Weight (male, 50 mg/kg-day): 754%
MPV (male, 50 mg/kg-day): 7.30 ± 0.36 fL
PT (male, 50 mg/kg-day): 15.14 s
Total BW change (male, 50 mg/kg-day): 307.16 g
Total Food Consumed (male, 50 mg/kg-day): 2229 g
% BW Gain (male, 100 mg/kg-day): 106.43%
% Diff, % BW Gain (male, 100 mg/kg-day): -6.20%
% Diff, Total BW change (male, 100 mg/kg-day): -9.44%
% Diff, Total Food Consumed (male, 100 mg/kg-day): -5.67%
A/G (male, 100 mg/kg-day): 0.87±0.20 ratio
ALB (male, 100 mg/kg-day): 3.34 ± 0.53 g/dL
ALPi (male, 100 mg/kg-day): 103.2±19.1 U/L
APTT (male, 100 mg/kg-day): 26.73 s
BUN (male, 100 mg/kg-day): 15.7 ± 3.2 mg/dL
CHOL (male, 100 mg/kg-day): 112.4 ± 25.0 mg/dL
GLOB (male, 100 mg/kg-day): 3.97 ± 0.63 g/dL
GLUC (male, 100 mg/kg-day): 171.8 ± 39.0 mg/dL
HCT (male, 100 mg/kg-day): 50.60±2.40%
HGB (male, 100 mg/kg-day): 15.71 ± 0.74 g/dL
Kidney Weight (male, 100 mg/kg-day): 3.38 g
Kidney/Body Weight (male, 100 mg/kg-day): 0.60%
Kidney/Brain Weight (male, 100 mg/kg-day): 156%
Liver Weight (male, 100 mg/kg-day): 18.32 g
Liver/Body Weight (male, 100 mg/kg-day): 3.24%
Liver/Brain Weight (male, 100 mg/kg-day): 843%
MPV (male, 100 mg/kg-day): 7.22 ± 0.38 fL
PT (male, 100 mg/kg-day): 15.16 s
Total BW change (male, 100 mg/kg-day): 294.89 g
Total Food Consumed (male, 100 mg/kg-day): 2241 g
% BW Gain (male, 200 mg/kg-day): 100.73%
% Diff, % BW Gain (male, 200 mg/kg-day): -11.23%
% Diff, Total BW change (male, 200 mg/kg-day): -14.29%
% Diff, Total Food Consumed (male, 200 mg/kg-day): -8.27%
A/G (male, 200 mg/kg-day): 0.91±0.04 ratio
ALB (male, 200 mg/kg-day): 3.55 ± 0.21 g/dL
ALPi (male, 200 mg/kg-day): 117.5±29.4 U/L
APTT (male, 200 mg/kg-day): 25.80 s
BUN (male, 200 mg/kg-day): 16.5 ± 2.0 mg/dL
CHOL (male, 200 mg/kg-day): 149.1 ± 27.7 mg/dL
GLOB (male, 200 mg/kg-day): 3.92 ± 0.23 g/dL
GLUC (male, 200 mg/kg-day): 163.2 ± 18.4 mg/dL
HCT (male, 200 mg/kg-day): 47.32±1.57%
HGB (male, 200 mg/kg-day): 14.88 ± 0.44 g/dL
Kidney Weight (male, 200 mg/kg-day): 3.60 g
Kidney/Body Weight (male, 200 mg/kg-day): 0.66%
Kidney/Brain Weight (male, 200 mg/kg-day): 168%
Liver Weight (male, 200 mg/kg-day): 20.17 g
Liver/Body Weight (male, 200 mg/kg-day): 3.70%
Liver/Brain Weight (male, 200 mg/kg-day): 944%
MPV (male, 200 mg/kg-day): 7.33 ± 0.31 fL
PT (male, 200 mg/kg-day): 15.32 s
Total BW change (male, 200 mg/kg-day): 279.08 g
Total Food Consumed (male, 200 mg/kg-day): 2179 g
